The record followed here is article PMC6017591, “Design, Synthesis and in Combo Antidiabetic Bioevaluation of Multitarget Phenylpropanoic Acids” (Molecules : A Journal of Synthetic Chemistry and Natural …, 2018).

Molecules are shown by their SMILES. A value given as a limit tells only on which side of the number the result lay.

One test relates to GLUT-4. The test can be described thus: Relative mRNA expression of GLUT-4 in 3T3-L1 adipocytes. The conditions noted are these: 24 h treatment. The test is classed as cell-based. From the text:
3T3-L1 fibroblasts were differentiated to the adipocyte phenotype in order to determine the action of compounds on PPARγ and GLUT-4 expression. […] The activation of PPARγ could reduce the glucose levels in diabetic patients due to insulin resistance reduction. […] Several evidences indicate that increased levels of GLUT-4 expression in skeletal muscle are critical for the regulation of glucose homeostasis.
Both assays were achieved as described elsewhere. Briefly: 3T3-L1 fibroblasts (9 × 10^5 cells per well) were cultured in 6-well plates in Dulbecco’s modified Eagle’s medium. After 2 days of confluence, the cells were differentiated to the adipocyte phenotype with 0.5 mM 3-isobutyl-1-methylxanthine, 0.25 μM dexamethasone acetate, and 0.8 μM insulin, for 48 h, followed by insulin alone for other 48 h. To determine the action of compounds on PPARγ and GLUT-4 expression, the cells were treated 24 h. RNA was isolated from cultured cells and two μg of total RNA were reverse-transcripted in a thermocycler. The enzyme was inactivated and finally samples were cooled. […] PCR was conducted and the threshold cycles (Ct) were measured in separate tubes and in duplicate. The ΔCt values were calculated in every sample for each gene of interest. Relative changes in the expression level of one specific gene (ΔΔCt) were calculated.

For test [1], the system named is STZ-NA induced diabetes mice model. The test can be described thus: In vivo antidiabetic effect in STZ-NA induced diabetes mice model. Details: species or system CD1 mice. The conditions noted are these: 100 mg/kg single dose, intragastric. On the procedure: Glibenclamide was used as a positive control, in order to ensure that the damage over β-cells was partial and mice pancreas still produces insulin, that responds to a secretagogue such as sulfonylurea drug used in this work.
CD1 mice (20–25 g) were housed in groups of six (n = 6) under laboratory conditions. Before experimentation, all animals were fasted for 16 h with water ad libitum. All animal procedures were conducted in accordance with the Mexican Federal Regulations for Animal Experimentation and Care (SAGARPA, NOM-062-ZOO-1999), based on US National Institutes of Health Publication #85-23, revised 1985. Non-insulin-dependent diabetes mice model was induced in overnight fasted mice by a single i.p. injection of 100 mg/kg STZ, 15 min before the i.p. administration of 40 mg/kg of NA. Hyperglycaemia was established by the higher plasma glucose concentration, determined by glucometer after 2 weeks. The animals with glycaemia higher than 200 mg/dL were selected for the assay. The diabetic mice were separated into […] of six animals each (n = 6). Mice of experimental groups were administered with a suspension of the molecules 1–3 (100 mg/kg, prepared in 10% (v/v) tween 80). Control group mice were similarly treated with 10% tween 80. […] The samples of blood were collected from the caudal vein at 0, 1, 3, 5 and 7 h after administration of each compound. Blood glucose levels were estimated using a commercial glucometer. The percentage variation of glycemia for each group was calculated. Values are expressed as mean ± S.E.M. Statistical significance was estimated by ANOVA.

In the next test the target is GPR40 (Homo sapiens, UniProt O14842). The test can be described thus: GPR40 agonist calcium flux assay in hGPR40/Gα16/HEK293 cells. Particulars: for Emax at 100 µM: HEK293, read-out: Maximal Response % (100 μM). For orientation: A change in cytosolic calcium serves as a functional read-out for many receptors and channels.
GPR40, sequence (O14842 whole entry): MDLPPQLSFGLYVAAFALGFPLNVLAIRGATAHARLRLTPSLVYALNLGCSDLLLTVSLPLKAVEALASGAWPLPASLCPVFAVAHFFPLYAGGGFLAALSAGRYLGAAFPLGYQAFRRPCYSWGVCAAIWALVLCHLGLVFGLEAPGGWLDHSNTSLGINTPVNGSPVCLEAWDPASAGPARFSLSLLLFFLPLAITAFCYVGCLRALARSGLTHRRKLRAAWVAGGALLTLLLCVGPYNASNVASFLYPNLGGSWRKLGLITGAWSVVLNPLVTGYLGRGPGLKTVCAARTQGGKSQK
Another test addresses human recombinant AKR1B1 (Homo sapiens, UniProt P15121). The test can be described thus: Aldose reductase (AKR1B1) inhibition assay.

Method for GPR40: Linoleic acid (LA), one of the endogenous ligands for GPR40, was designated as positive control.
This bioassay was previously described [2]. Briefly: About 4 × 10^4 h GPR40/HEK293 per well were seeded in 96-well plate. After culturing for 24 h, cells were loaded with 2 μmol/L Fluo-4 AM in Hanks’ balanced salt solution at 37 °C for 40 min.
Method for human recombinant AKR1B1: Human recombinant AKR1B1 was purified by electrophoretic homogeneity as previously described [24]. The enzyme activity was corroborated at 37 °C following the decrease of absorbance at 340 nm. […] IC50 values was determined by nonlinear regression analysis. For each curve, five different concentrations of compounds were analyzed [25].

In the case of `O=C(O)CCc1ccc(OCc2cccc3ccccc23)cc1` [Compound 2, 3-[4-(1-Naphthylmethoxy)phenyl]propanoic acid], the “Increase in GLUT-4 levels (mRNA expression)” value in the test on GLUT-4 fell in the range of 2 to 4 times. In test [1] (7 h after administration, STZ-NA diabetic mice), the “Decrease of blood glucose levels” value is approximately 80%.
As for `O=C(O)CCc1ccc(OCc2ccc3ccccc3n2)cc1` [Compound 4, 3-[4-(Quinolin-2-ylmethoxy)phenyl]propanoic acid], at GPR40, the concentration for a half-maximal effect (EC50) was approximately 100 µM and the Emax at 100 µM came out at 84%.
With `N#Cc1ccccc1-c1ccc(COc2ccc(CCC(=O)O)cc2)cc1` [Compound 3, 3-{4-[(2′-Cyanobiphenyl-4-yl)methoxy]phenyl} propanoic acid], the “Increase in GLUT-4 levels (mRNA expression)” value in the test with GLUT-4 was 2 to 4 times. For the same molecule, the “Glucose lowering effect (variation of glycemia)” value in test [1] (at 3 h) was −20%; in test [1] (at 5 h) it was −50%; in test [1] (at 7 h), −60%.
Turning to `CCCCC/C=C\C/C=C\CCCCCCCC(=O)O` [LA, Linoleic acid, reference compound], at GPR40, the EC50 was 8.3 ± 1.7 µM and the Emax at 100 µM stood at 100%.
As to `O=C(O)CCc1ccc(OCC(=O)Nc2nc3ccccc3s2)cc1` [Compound 5, 3-{4-[2-(1,3-Benzothiazol-2-ylamino)-2 oxoethoxy]phenyl}propanoic Acid], the concentration for half-maximal inhibition (IC50) on human recombinant AKR1B1 was found to be 23.3 µM. In addition, on GPR40, the 50% effective concentration (EC50) is more than 100 µM and the Emax at 100 µM is 9.9%. Besides, the “GPR40 agonistic activity (in words)” value on GPR40 (calcium assay) was “inactive”.
As to `O=C(O)CCc1ccc(OCc2cccc(-c3ccccc3)c2)cc1` [Compound 1, 3-[4-(Biphenyl-3-ylmethoxy)phenyl]propanoic acid], the “In vivo antidiabetic activity (in words)” value in test [1] (STZ-NA diabetic mice) is “lack of in vivo activity”. Further, on GPR40, the EC50 was found to be 0.075 ± 0.02 µM and the Emax at 100 µM is 98 ± 10%.

By EC50 is commonly meant the concentration that produces a half-maximal response. The IC50 is the point on the concentration scale where inhibition reaches its midpoint.
